Eleven molecules from US20210317113A1, “1,2,3-TRIAZOLE DERIVATIVES AND USES THEREOF” (Alxerion Biotech LLC, priority 2020, published 2021) can be followed below.

In one assay the test system is Non-Small Lung Cancer Cells (NSLCs). As to the kind of experiment: Cancer migration (wound healing) assay. The class given is cell-based. The conditions noted are these: 96 h, NSLCs, 20% plasma, 20 mM calcium medium, wound closure over 4 days (FIG. 3); read-out: IC50 from dose response curve, cell migration. From the text: The ability of 1,2,3-triazole derivatives according to the disclosure to inhibit cancer cell migration and proliferation in vitro can be measured, e.g., by a wound healing assay (Rodriguez et al., in Cell Migration: Developmental Methods and Protocols, Web et al., Guan ed. Humana Press 294, 23-29). This assay is based on the observation that, upon the creation of an artificial gap on a confluent cancer cell monolayer, the cells on the edge of the created gap will start migrating and proliferating until new cell-cell contacts are established (EXAMPLE 3).
Non-Small Lung Cancer Cells (NSLCs) migration rate was assessed in an in vitro wound healing assay. This assay is based on the observation that, upon the creation of an artificial gap on a confluent cell monolayer, the cells on the edge of the created gap will start migrating and proliferating until new cell-cell contacts are established.
A confluent cell layer is a prerequisite for starting this assay. Gap formation is done manually with a scrapper and cell proliferation and migration is determined recording a time-lapse video for 20 hr. with a time interval of 30 min. The microscopic pictures are manually analyzed for obtaining information about the proliferation and migration characteristics of the cultured cells and the image analysis detects the cell covered area.
NSLCs were cultured in Eagle's Minimum Essential Medium (ATCC-formulated medium, Catalog No. 30-2003) containing fetal bovine serum at 10% during several periods. Wound healing assays with supplemented medium containing 1,2,3-triazole derivatives were performed to evaluate the inhibitory effect on proliferation and migration of cancer cells.
In order to simulate as close as possible the in vivo cancer microenvironment, human plasma and calcium were added to the cell culture system to provide the hemostatic factors normally present in the cancer stroma. The previous day, cells were seeded with 10% FBS at a number that would provide 90% confluence the next day. On Day 0, a scratch (“a wound”) was performed in the middle of the well and the 10% FBS medium was replaced with 20% plasma, 20 mM calcium medium, with or without Derivative 1. 10% FBS medium was used as control in these experiments. “Wound healing” or closure of the scratch was assessed over a period of 4 days, and cell number in the wound area was quantified for each condition. Increasing amount of Derivative 1 (LTI6) was used to attain a dose-response curve.
The cell function effect of Derivative 1 was compared with Tranexamic Acid (TNA) and Caproic Acid (CA), commercially available and widely used anti-metastasis drugs.
Consider `O=c1[nH]nc(-c2cn(C3CCNCC3)nn2)o1` [Derivative 1], for which the IC50 was determined as 96.1 µM.

Turning to `NC[C@H]1CC[C@H](C(=O)O)CC1` [TNA, Tranexamic Acid, reference compound], the IC50 was 438 µM.

Still in this assay, the particulars now being: 96 h, read-out: IC50 from dose response curve, cell migration.
On to `CCCCCC(=O)O` [CA, Caproic Acid, reference compound], for which the IC50 was 1340 µM.

The assay is the same for the next values; noted with them: NSLCs, 20% plasma, 20 mM calcium medium (FIG. 3).
Turning to `O=c1[nH]nc(-c2cn(C3CCNCC3)nn2)o1` [Derivative 1], the “concentration at which cell migration was completely impaired” value (“concentration” for short) was 100 µM.

Turning to `NC[C@H]1CC[C@H](C(=O)O)CC1` [TNA, Tranexamic Acid, reference compound], the “concentration” value came to 250 µM.

In the case of `CCCCCC(=O)O` [CA, Caproic Acid, reference compound], the “concentration” value amounted to 1400 µM.

Still in this assay, the particulars now being: from IC50 values, vs Caproic Acid.
Regarding `O=c1[nH]nc(-c2cn(C3CCNCC3)nn2)o1` [Derivative 1], the “potency relative to CA in inhibition of migration of cancer cells” value was greater than 10 ×.

Staying with this assay, now noted: from IC50 values, vs Tranexamic Acid.
As to `O=c1[nH]nc(-c2cn(C3CCNCC3)nn2)o1` [Derivative 1], the “potency relative to TNA in inhibition of migration of cancer cells” value is on record as greater than 4 ×.

The assay is the same for the next values; noted with them: wound healing assay, dose-response curve; listed as 5; read-out: Anti-Cancer Activity (Inhibition of Cancer Cell Migration) IC50.
Consider `O=c1[nH]c(-c2cn(C3CCNCC3)nn2)no1` [Derivative 5], for which the IC50 came out at 90 µM.

Staying with this assay, now noted: wound healing assay, dose-response curve; read-out: Anti-Cancer Activity (Inhibition of Cancer Cell Migration) IC50.
On to `NCCCn1cc(-c2n[nH]c(=O)o2)nn1` [Derivative 2], for which the IC50 was found to be 350 µM.

Regarding `NNC(=O)c1cn(C2CCNCC2)nn1` [Derivative 3], the IC50 came to 230 µM.

Regarding `NCCn1cc(C(=O)O)nn1` [Derivative 30], the IC50 worked out at 520 µM.

Turning to `NCCn1cc(-c2nnc(C(=O)O)o2)nn1` [Derivative 24], the IC50 worked out at 620 µM.

Regarding `NCCCn1cc(C/C(N)=N\O)nn1` [Derivative 11], the IC50 is 510 µM.

For the molecule `O=C(O)c1nnc(-c2cn(C3CCNCC3)nn2)o1` [Derivative 21], the IC50 was found to be 100 µM.

As to `N=C(N)c1cn(CCCN)nn1` [Derivative 34], the IC50 is 220 µM.

As to `O=c1[nH]nc(-c2cn(C3CCNCC3)nn2)o1` [Derivative 1], the IC50 was found to be 120 µM.

The next assay concerns fibrinolysis mediated by tPA (plasminogen activation by tPA). As to the kind of experiment: Fibrinolytic assay: one-step spectrophotometric clot lysis in human plasma. The class given is biochemical. The conditions noted are these: concentration at which 50% of total fibrinolysis mediated by tPA is inhibited; human ACD plasma, clot triggered by TF, absorbance 340 nm; listed as 1; read-out: Anti-fibrinolytic (SERPIN) Activity IC50. As to the method: Fibrinolytic activity in human plasma was determined by a one-step spectrophotometric method (Gidron et al. (1978) J. Clin. Pathol. 31(1):54-57) with minor modifications (see EXAMPLE 2). In this method, fibrin clot formation in anticoagulant citrate dextrose (ACD) plasma samples obtained from healthy volunteers is triggered by tissue factor (TF) and can be quantified by spectrometry as a significant increase in basal plasma absorbance at 340 nm.
As shown in FIGS. 2A-2D, in the absence of tPA, plasma absorbance remains permanently elevated.
Fibrinolytic activity in human plasmas in the presence of derivatives according to the disclosure was determined by a one-step spectrophotometric method.
Fibrin clot formation in the anticoagulant acid citrate dextrose (ACD)-treated plasma obtained from healthy volunteers is triggered by tissue factor (TF) (Thromborel S, Siemens Healthineers) and quantifies by spectrophotometry at 340 nm (using a Molecular Devices SpectraMax® M2e Multimode Microplate Reader). When recombinant human Tissue Plasminogen Activator (tPA, final concentration of 5.2 μg/ml) is simultaneously added, fibrinolysis of the clot can be determined.
Fresh blood was extracted from healthy volunteers. ACD, to reach a 10% concentration, was instantly added to the extracted blood, to prevent any unwanted coagulation. After that, blood was centrifuged for 15 min at 1,000 g. Plasma was clearly separated from red blood cells. 3 mL aliquots of aspirated plasma were immediately frozen at −20° C.
4 mL of ddH2O was added to a vial of Thromborel S and mixed thoroughly for 2 min. and left at 4° C. 500 μL TF aliquots were used for each experiment.
Representative derivatives of the present disclosure (Nos. 1, 5, and 7) were diluted in DMSO (those with Boc) or ddH2O (those with HCl) to a final concentration of 10 mM. A solution containing 1 M Tris HCl, pH 7.5 (Fisher BioReagent) (Buffer A), 0.110 g of CaCl2) in 10 mL of ddH2O (Buffer B), and tPA (Abcam, 1.3 mg/mL added into the diluted derivative solution, final concentration in serum was 5.2 μg/mL), and the derivative was prepared in a total volume of 75 μL and added to untreated, flat, clear Costar® 96-well plates in triplicate. Absorbance at 340 nm at 37° C. for 30 min was recorded every 15 sec. The plates were shaken every 3 sec in between readings. Controls for basal plasma absorbance, basal coagulation absorbance and basal fibrinolytic activity absorbance were performed in every assay.
FIG. 2A show the results a control experiment displaying the ability of TF to cause fibrin clot formation in the absence and presence of t-PA. TF was able to cause fibrin clot formation evaluated as a significant increase of the basal plasma absorbance at 340 nm.
In the case of `O=c1[nH]nc(-c2cn(C3CCNCC3)nn2)o1` [Derivative 1], the IC50 was 50 µM.

The same assay, now with this note: concentration at which 50% of total fibrinolysis mediated by tPA is inhibited; human ACD plasma, clot triggered by TF, absorbance 340 nm; listed as 5; read-out: Anti-fibrinolytic (SERPIN) Activity IC50.
Take `O=c1[nH]c(-c2cn(C3CCNCC3)nn2)no1` [Derivative 5]: the IC50 is 35 µM.

The assay is the same for the next values; noted with them: concentration at which 50% of total fibrinolysis mediated by tPA is inhibited; human ACD plasma, clot triggered by TF, absorbance 340 nm; read-out: Anti-fibrinolytic (SERPIN) Activity IC50.
Regarding `NCCCn1cc(-c2n[nH]c(=O)o2)nn1` [Derivative 2], the IC50 is 200 µM.

Take `NNC(=O)c1cn(C2CCNCC2)nn1` [Derivative 3]: the IC50 was found to be 180 µM.

Turning to `NCCn1cc(C(=O)O)nn1` [Derivative 30], the IC50 amounted to 370 µM.

Take `NCCn1cc(-c2nnc(C(=O)O)o2)nn1` [Derivative 24]: the IC50 turned out to be 315 µM.

Turning to `NCCCn1cc(C/C(N)=N\O)nn1` [Derivative 11], the IC50 turned out to be 325 µM.

`O=C(O)c1nnc(-c2cn(C3CCNCC3)nn2)o1` [Derivative 21]: the IC50 worked out at 35 µM.

`N=C(N)c1cn(CCCN)nn1` [Derivative 34]: the IC50 came to 101 µM.

Still in this assay, the particulars now being: different concentrations, FIGS. 2B-2D.
Regarding `O=c1[nH]nc(-c2cn(C3CCNCC3)nn2)o1` [Derivative 1], the “inhibition of fibrinolysis mediated by tPA (in words)” value is reported as “completely inhibit fibrinolysis”.

Consider `O=c1[nH]c(-c2cn(C3CCNCC3)nn2)no1` [Derivative 5], for which the “inhibition of fibrinolysis mediated by tPA (in words)” value is on record as “completely inhibit fibrinolysis”.

A further assay relates to Non-Small Lung Cancer Cells (NSLCs). Kind of assay: Trypan Blue Exclusion Test of cancer cell viability. The class given is cell-based. The conditions noted are these: 200 μM, plasma conditions, 7 days, vs plasma alone (FIG. 4C). Here is the method:
The ability of 1,2,3-triazole derivatives according to the disclosure to kill cancer cells can be measured, e.g., by Trypan Blue Exclusion Assay which measured cell death by starvation due to the presence of the derivative (see EXAMPLE 4). The results obtained using this assay with some representative 1,2,3-triazole derivatives according to the disclosure are shown below in Table 4.
The effect of Derivative 1 on cancer cell viability was determined using the Trypan Blue Exclusion Test (Stober (2001) (Curr. Protoc. Immunol., May; Appendix 3:Appendix 3B. doi: 10.1002/0471142735.ima03bs21). The viability of Non-Small Lung Cancer Cells (NSLCs) was assessed over a period of 15 days after the promotion of coagulation with or without 200 μM of 1,2,3-triazole derivative 1 and with or without 2% human plasma. Fresh 2% FBS medium corresponding to each condition was added every 3 days. Cell death was analyzed using Trypan blue staining. 2% FBS medium was used as control. Some representative results are shown in FIGS. 4A-4F.
For the molecule `O=c1[nH]nc(-c2cn(C3CCNCC3)nn2)o1` [Derivative 1], the “cell death by Trypan blue staining after 7 days (in words)” value is given as “even more significant”.

Still in this assay, the particulars now being: 200 μM, plasma conditions, 15 days, vs FBS and plasma alone (FIG. 4F).
With `O=c1[nH]nc(-c2cn(C3CCNCC3)nn2)o1` [Derivative 1], the “cell death by Trypan blue staining after 15 days (in words)” value is reported as “increased cell death”.

Staying with this assay, now noted: defined in text as concentration of derivative causing greater than 90% of the cells to die; listed as 1; read-out: Anti-Cancer Activity (Trypan Blue Exclusion Assay) IC50.
Regarding `O=c1[nH]nc(-c2cn(C3CCNCC3)nn2)o1` [Derivative 1], the IC50 came out at 250 µM.

The same assay, now with this note: defined in text as concentration of derivative causing greater than 90% of the cells to die; listed as 5; read-out: Anti-Cancer Activity (Trypan Blue Exclusion Assay) IC50.
As for `O=c1[nH]c(-c2cn(C3CCNCC3)nn2)no1` [Derivative 5], the IC50 was determined as 150 µM.

The same assay, now with this note: defined in text as concentration of derivative causing greater than 90% of the cells to die; read-out: Anti-Cancer Activity (Trypan Blue Exclusion Assay) IC50.
On to `NCCCn1cc(-c2n[nH]c(=O)o2)nn1` [Derivative 2], for which the IC50 came to 550 µM.

For the molecule `NNC(=O)c1cn(C2CCNCC2)nn1` [Derivative 3], the IC50 was 410 µM.

On to `NCCn1cc(C(=O)O)nn1` [Derivative 30], for which the IC50 was 710 µM.

In the case of `NCCn1cc(-c2nnc(C(=O)O)o2)nn1` [Derivative 24], the IC50 was 810 µM.

Regarding `NCCCn1cc(C/C(N)=N\O)nn1` [Derivative 11], the IC50 came to 680 µM.

As to `O=C(O)c1nnc(-c2cn(C3CCNCC3)nn2)o1` [Derivative 21], the IC50 came out at 150 µM.

For `N=C(N)c1cn(CCCN)nn1` [Derivative 34], the IC50 was found to be 350 µM.
